Literature values, collected in patent US11260065B2, “Storage-stable ready-to-use injectable formulations of thiotepa” (RK Pharma Solutions LLC, priority 2018, dated 2022).

Tests used:
[1] = water and organic solvents
[2] = acid medium

In the case of `S=P(N1CC1)(N1CC1)N1CC1` [Thiotepa, tris(1-aziridinyl)phosphine sulfide], the Solubility [1] is given as “soluble in water and organic solvents” and the Stability [2] is given as “unstable in acid medium”.
